In PMC3559828 (PLoS ONE, 2013):
pIC50: −log10 of the molar value. Bridge positions count the residues as written; N and C are the ends. Peptide text beside a SMILES is read from it.

Experiments:
Mouse α1β1γδ nAChR = molecular target: T1, Mouse α1β1γδ nAChR (Mus musculus, UniProt P02716+P04756+P09690+P20782); assay: cell-based
T1 construct: expressed in transfected cells; host or cells: Xenopus oocytes injected with cRNA

α9α10 nAChR = settings: cited from earlier work
GABAB receptors = settings: cited from earlier work

T1 sequence (P04756 21-457 limits assumed): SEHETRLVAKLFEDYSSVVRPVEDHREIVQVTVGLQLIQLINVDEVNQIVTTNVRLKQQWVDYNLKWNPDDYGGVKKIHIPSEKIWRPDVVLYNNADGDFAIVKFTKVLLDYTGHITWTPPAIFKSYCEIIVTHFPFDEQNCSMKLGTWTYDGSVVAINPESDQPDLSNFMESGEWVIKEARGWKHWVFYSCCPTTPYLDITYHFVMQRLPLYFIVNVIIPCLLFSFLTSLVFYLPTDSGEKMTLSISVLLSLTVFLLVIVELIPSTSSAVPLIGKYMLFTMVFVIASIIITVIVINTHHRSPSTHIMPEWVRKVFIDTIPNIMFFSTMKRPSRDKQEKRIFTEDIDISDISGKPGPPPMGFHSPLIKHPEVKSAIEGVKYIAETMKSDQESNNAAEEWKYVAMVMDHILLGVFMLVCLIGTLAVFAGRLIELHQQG
T1 sequence (P09690 24-501 partner limits assumed): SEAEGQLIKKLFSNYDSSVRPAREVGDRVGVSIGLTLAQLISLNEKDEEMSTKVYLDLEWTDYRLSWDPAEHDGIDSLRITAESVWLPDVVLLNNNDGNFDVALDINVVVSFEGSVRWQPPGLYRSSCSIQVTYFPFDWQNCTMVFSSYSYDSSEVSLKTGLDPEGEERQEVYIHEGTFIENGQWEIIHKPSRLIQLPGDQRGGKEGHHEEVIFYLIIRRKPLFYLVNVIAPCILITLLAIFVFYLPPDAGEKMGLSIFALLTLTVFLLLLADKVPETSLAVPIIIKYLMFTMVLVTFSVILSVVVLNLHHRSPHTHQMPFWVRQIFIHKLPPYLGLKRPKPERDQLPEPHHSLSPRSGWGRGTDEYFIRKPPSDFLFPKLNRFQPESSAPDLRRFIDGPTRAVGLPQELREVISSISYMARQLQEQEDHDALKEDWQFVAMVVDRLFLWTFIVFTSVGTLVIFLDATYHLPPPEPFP
T1 sequence (P02716 25-520 limits assumed): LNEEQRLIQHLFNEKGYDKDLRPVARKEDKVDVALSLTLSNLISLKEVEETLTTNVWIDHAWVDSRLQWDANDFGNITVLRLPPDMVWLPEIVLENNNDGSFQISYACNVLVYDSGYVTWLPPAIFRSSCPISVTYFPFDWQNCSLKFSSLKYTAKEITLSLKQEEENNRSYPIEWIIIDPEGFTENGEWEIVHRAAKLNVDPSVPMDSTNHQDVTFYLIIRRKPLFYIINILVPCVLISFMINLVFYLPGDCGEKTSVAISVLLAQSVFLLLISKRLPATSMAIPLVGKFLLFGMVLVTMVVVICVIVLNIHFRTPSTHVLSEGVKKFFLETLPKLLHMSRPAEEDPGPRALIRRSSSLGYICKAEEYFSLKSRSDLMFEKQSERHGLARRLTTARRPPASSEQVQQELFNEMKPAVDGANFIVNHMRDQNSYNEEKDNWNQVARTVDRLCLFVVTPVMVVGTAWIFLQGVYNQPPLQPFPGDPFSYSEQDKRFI
T1 sequence (P20782 21-493 limits assumed): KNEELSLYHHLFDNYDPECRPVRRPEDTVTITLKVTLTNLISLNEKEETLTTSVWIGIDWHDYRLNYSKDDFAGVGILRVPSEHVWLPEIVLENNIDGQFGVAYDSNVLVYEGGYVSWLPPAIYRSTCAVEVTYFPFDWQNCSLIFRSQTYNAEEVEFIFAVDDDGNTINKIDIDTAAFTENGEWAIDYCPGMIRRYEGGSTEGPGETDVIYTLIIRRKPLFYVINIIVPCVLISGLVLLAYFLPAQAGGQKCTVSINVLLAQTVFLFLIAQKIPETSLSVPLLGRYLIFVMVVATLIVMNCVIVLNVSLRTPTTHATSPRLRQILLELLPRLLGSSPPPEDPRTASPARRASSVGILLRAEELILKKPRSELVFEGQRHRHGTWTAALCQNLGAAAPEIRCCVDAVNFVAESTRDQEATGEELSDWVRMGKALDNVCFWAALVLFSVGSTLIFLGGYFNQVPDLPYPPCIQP

| Compound | pIC50 (Mouse α1β1γδ nAChR) | pIC50 (α9α10 nAChR) | activity at GABAB receptors (GABAB receptors) |
| --- | --- | --- | --- |
| CC(C)C[C@@H]1NC(=O)[C@@H](NC(=O)[C@H](CCCNC(=N)N)NC(=O)[C@@H](N)C(C)C)CSSC[C@@H](C(=O)N[C@H]2CSSC[C@@H](C(=O)N[C@H](C(=O)N[C@@H](Cc3ccc(O)cc3)C(=O)N[C@@H](Cc3ccc(O)cc3)C(=O)N[C@H](C(=O)N[C@@H](CCC(N)=O)C(=O)N[C@@H](CO)C(=O)N[C@@H](CCCNC(=N)N)C(=O)N[C@@H](CCC(=O)O)C(=O)O)[C@@H](C)O)C(C)C)NC(=O)[C@H](CCCNC(=N)N)NC(=O)[C@H](CO)NC(=O)[C@H](Cc3c[nH]cn3)NC(=O)[C@H](CCCNC(=N)N)NC(=O)[C@H](C)NC(=O)[C@H](Cc3ccccc3)NC(=O)[C@H](CO)NC(=O)[C@@H]3CCCN3C(=O)CNC(=O)[C@H](CCCCN)NC(=O)[C@H](CCC(N)=O)NC2=O)NC(=O)[C@@H]2CCCN2C(=O)[C@@H]2CCCN2C(=O)[C@H](CCCNC(=N)N)NC(=O)[C@H](Cc2ccccc2)NC(=O)[C@H](CC(C)C)NC(=O)[C@H](CCCCN)NC(=O)[C@H](CC(N)=O)NC(=O)[C@@H]2CCCN2C(=O)[C@H](CCC(N)=O)NC(=O)[C@H](C)NC(=O)CNC(=O)[C@H](CO)NC(=O)[C@H](CCCCN)NC(=O)[C@H](CCC(=O)O)NC1=O [αB-VxXXIVA [1], [2]] (H-VRCLEKSGAQPNKLFRPPCCQKGPSFARHSRCVYYTQSRE-OH; disulfide 3-19, 20-32) | 5.18 | – | – |
| α-conotoxin RgIA | – | 7.72 | activate GABAB receptors |
